Reference: patent publication US10940139B2, “Compounds that interact with the Ras superfamily for the treatment of cancers, inflammatory diseases, rasopathies, and fibrotic disease” (Shy Therapeutics LLC, priority 2017, dated 2021)

Tested on: MAPK phosphorylation in PANC-1 pancreatic cancer cell line
Experiment: MAPK cell-based phosphorylation assay (cell-direct ELISA, EGF stimulation)
Conditions: Homo sapiens, * = tested at 10 μM
How it was run: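 Cell-direct ELISA measured phospho-MAPK, with fluorescence read at 595 nm from AmpliFlu Red. Before fixation, PANC-1 cells starved overnight received 6 hours of compound (30 μM single dose or serial dilutions, 0.3% DMSO, 37° C), followed by 1.5 ng/ml EGF for 15 min.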

Compared with `COc1nccc(CCNC(=O)c2csc3nc(-c4ccccn4)nc(N4CCOCC4)c23)n1` [drawing 1234], `O=C(NCCc1ccnc(O)n1)c1csc2nc(-c3ccccn3)nc(N3CCOCC3)c12` [drawing 1235] is lower in inhibition at 10 µM: 25 to 50% for the first, 1 to 25% for the second.

First: CN1CCN(c2nc(-c3ccccn3)nc3scc(C(=O)NCCc4cnc(O)nc4)c23)CC1 [drawing 1236]
Second: O=C(NCCc1ccncn1)c1csc2nc(-c3ccccn3)nc(N3CCOCC3)c12 [drawing 1261]
The inhibition at 10 µM of the first is higher: 25 to 50% for the first, 0% for the second.

First: Oc1nc(-c2ccccn2)nc2c(-c3cc(F)cc(F)c3)csc12 [drawing 1237]
Second: Oc1nc(-c2ccccn2)nc2c(-c3cncc(C(F)F)c3)csc12 [drawing 1268]
The inhibition at 10 µM of the first is higher: 76 to 100% for the first, 0% for the second.

First: Oc1nc(-c2ccccn2)nc2c(-c3ccc4c(c3)CCCO4)csc12 [drawing 1238]
Second: N#Cc1cccc(-c2csc3c(O)nc(-c4ccccn4)nc23)c1 [drawing 1264]
The inhibition at 10 µM of the first is higher: 76 to 100% for the first, 0% for the second.

First: CCn1nc(C)cc1-c1csc2c(O)nc(-c3ccccn3)nc12 [drawing 1239]
Second: Cc1c(-c2csc3c(O)nc(-c4ccccn4)nc23)cnn1C [drawing 1266]
The inhibition at 10 µM of the first is higher: 1 to 25% for the first, 0% for the second.

Compared with `Oc1nc(-c2ccccn2)nc2c(-c3ccnn3-c3ccccn3)csc12` [drawing 1240], `Oc1cccc(-c2csc3c(O)nc(-c4ccccn4)nc23)n1` [drawing 1259] is higher in inhibition at 10 µM: 1 to 25% for the first, 51 to 75% for the second.

`Cc1sc2c(O)nc(-c3ccccn3)nc2c1-c1ccccc1` [drawing 1241] and `Cc1sc2c(O)nc(-c3ccccn3)nc2c1-c1ccccc1Cl` [drawing 1275] fall in the same range of inhibition at 10 µM: 76 to 100% for the first, 76 to 100% for the second.

Compared with `Nc1nc(-c2ccccn2)nc2scc(C(=O)O)c12` [drawing 1242], `COc1cnc(CNC(=O)c2csc3nc(-c4ccccn4)nc(N)c23)[nH]c1=O` [drawing 1277] is higher in inhibition at 10 µM: 1 to 25% for the first, 25 to 50% for the second.

`COC(=O)c1cc2nc(-c3ccccn3)nc(O)c2s1` [drawing 1243] and `Cc1cc2nc(-c3ccccn3)nc(O)c2s1` [drawing 1246] fall in the same range of inhibition at 10 µM: 25 to 50% for the first, 25 to 50% for the second.

`COc1nc(-c2ccccn2)nc2c(C3CCCC3)csc12` [drawing 1244] and `COc1nc(-c2ccccn2)nc2c(C3CCCCC3)csc12` [drawing 1251] fall in the same range of inhibition at 10 µM: 1 to 25% for the first, 1 to 25% for the second.

First: CCC(C)c1csc2c(OC)nc(-c3ccccn3)nc12 (stereo not drawn) [drawing 1245]
Second: CC(C)Cc1csc2c(O)nc(-c3ccccn3)nc12 [drawing 1255]
The inhibition at 10 µM of the first is lower: 25 to 50% for the first, 76 to 100% for the second.

First: COC(=O)c1c(C)sc2c(O)nc(-c3ccccn3)nc12 [drawing 1247]
Second: COC(=O)c1c(C)sc2c(N)nc(-c3ccccn3)nc12 [drawing 1260]
The inhibition at 10 µM of the first is lower: 1 to 25% for the first, 25 to 50% for the second.

Compared with `Cc1c(Br)sc2c(O)nc(-c3ccccn3)nc12` [drawing 1248], `Cc1sc2c(O)nc(-c3ccccn3)nc2c1Br` [drawing 1282] is higher in inhibition at 10 µM: 1 to 25% for the first, 76 to 100% for the second.

Compared with `Cc1c(C(=O)O)sc2c(O)nc(-c3ccccn3)nc12` [drawing 1249], `CC(C)(C)c1sc2c(O)nc(-c3ccccn3)nc2c1Br` [drawing 1314] is lower in inhibition at 10 µM: 25 to 50% for the first, 1 to 25% for the second.

First: Oc1nc(-c2ccccn2)nc2c(C3CCC3)csc12 [drawing 1250]
Second: Oc1nc(-c2ccccn2)nc2c(C3CC3)csc12 [drawing 1278]
The inhibition at 10 µM of the first is higher: 76 to 100% for the first, 51 to 75% for the second.

First: CC(C)Oc1cnc(-c2ccccn2)nc1O [drawing 1252]
Second: COC(=O)c1nc(-c2ccccn2)nc(O)c1O [drawing 1307]
The inhibition at 10 µM of the first is higher: 1 to 25% for the first, 0% for the second.

First: CN(C)CCOc1cccc(-c2csc3c(O)nc(-c4ccccn4)nc23)c1 [drawing 1253]
Second: Nc1cccc(-c2csc3c(O)nc(-c4ccccn4)nc23)n1 [drawing 1274]
The inhibition at 10 µM of the first is higher: 76 to 100% for the first, 51 to 75% for the second.

First: Oc1nc(-c2ccccn2)nc2c(C3CCCC3)csc12 [drawing 1256]
Second: Oc1nc(-c2ccccn2)nc2c(C3CCCCC3)csc12 [drawing 1272]
The inhibition at 10 µM of the first is higher: 76 to 100% for the first, 25 to 50% for the second.

Compared with `COc1cnc(-c2cn(C)cn2)nc1O` [drawing 1257], `COc1cnc(-c2nccn2C)nc1O` [drawing 1273] is lower in inhibition at 10 µM: 51 to 75% for the first, 25 to 50% for the second.

First: Cc1sc2c(O)nc(-c3ccccn3)nc2c1-c1ccncc1 [drawing 1258]
Second: Oc1nc(-c2ccccn2)nc2c(-c3ccccc3)c(-c3ccncc3)sc12 [drawing 1308]
The inhibition at 10 µM of the first is higher: 51 to 75% for the first, 0% for the second.

`CC(C)c1nn(C)cc1-c1csc2c(O)nc(-c3ccccn3)nc12` [drawing 1262] and `Cc1nn(C(C)C)cc1-c1csc2c(O)nc(-c3ccccn3)nc12` [drawing 1267] are the same in inhibition at 10 µM: 0% for the first, 0% for the second.

First: Oc1nc(-c2ccccn2)nc2c(-c3cc(CN4CCCC4)ccc3F)csc12 [drawing 1263]
Second: Cc1sc2c(O)nc(-c3ccccn3)nc2c1C(=O)N1CCN(Cc2cccc(O)c2)CC1 [drawing 1271]
The inhibition at 10 µM of the first is lower: 0% for the first, 25 to 50% for the second.

`Oc1nc(-c2ccccn2)nc2c(-c3cncnc3)csc12` [drawing 1265] and `Oc1nc(-c2ccccn2)nc2c(CC3CNC3)csc12` [drawing 1279] are the same in inhibition at 10 µM: 0% for the first, 0% for the second.

`Cc1sc2c(O)nc(-c3ccccn3)nc2c1C(=O)N1CCN(c2ccccc2)CC1` [drawing 1269] and `Cc1sc2c(O)nc(-c3ccccn3)nc2c1C(=O)N1CCN(c2ccccc2)CC1C` (stereo not drawn) [drawing 1270] fall in the same range of inhibition at 10 µM: 1 to 25% for the first, 1 to 25% for the second.

Compared with `COc1cnc(-c2cnc[nH]2)nc1O` [drawing 1276], `COc1cnc(CNC(=O)c2csc3c(O)nc(-c4ccccn4)nc23)[nH]c1=O` [drawing 1280] is lower in inhibition at 10 µM: 1 to 25% for the first, 0% for the second.

Compared with `COc1cnc(CNC(=O)c2cc3nc(-c4ccccn4)nc(O)c3s2)[nH]c1=O` [drawing 1281], `COc1cnc(CNC(=O)c2c(C)sc3c(O)nc(-c4ccccn4)nc23)[nH]c1=O` [drawing 1283] is lower in inhibition at 10 µM: 51 to 75% for the first, 0% for the second.

`COc1cnc(CNC(=O)c2sc3c(O)nc(-c4ccccn4)nc3c2C)[nH]c1=O` [drawing 1284] and `Oc1nc(-c2ccccn2)nc2c(Br)c(-c3ccccc3)sc12` [drawing 1313] are the same in inhibition at 10 µM: 0% for the first, 0% for the second.

First: O=C(c1csc2c(O)nc(-c3ccccn3)nc12)N1CCNC(c2ccc(Cl)cc2)C1 (stereo not drawn) [drawing 1285]
Second: Oc1nc(-c2ccccn2)nc2c(CC3CCNC3)csc12 (stereo not drawn) [drawing 1286]
The inhibition at 10 µM of the first is lower: 0% for the first, 1 to 25% for the second.

First: O=c1[nH]c(-c2ccccn2)nc2c([C@@H]3O[C@H](CO)[C@@H](O)[C@H]3O)csc12 [drawing 1287]
Second: COc1ccc(COC[C@H]2O[C@@H](c3csc4c(=O)[nH]c(-c5ccccn5)nc34)[C@H](O)[C@@H]2O)cc1 [drawing 1293]
The inhibition at 10 µM of the first is higher: 1 to 25% for the first, 0% for the second.

First: Cn1cnc(-c2nc(O)c3c(-c4ccccc4)c(-c4ccncc4)sc3n2)c1 [drawing 1288]
Second: COc1nc(-c2cn(C)cn2)nc2sc(-c3ccncc3)c(-c3ccccc3)c12 [drawing 1291]
The inhibition at 10 µM of the first is higher: 25 to 50% for the first, 1 to 25% for the second.

First: COCCNc1nc(-c2ccccn2)nc(-c2cccc(OCCN(C)C)c2)c1Oc1ccccc1 [drawing 1289]
Second: COCCNc1nc(-c2ccccn2)nc2c1c(-c1ccccc1)nn2-c1ccccn1 [drawing 1298]
The inhibition at 10 µM of the first is higher: 25 to 50% for the first, 1 to 25% for the second.

First: COCCNc1nc(-c2cn(C)cn2)nc2sc(-c3ccncc3)c(-c3ccccc3)c12 [drawing 1290]
Second: COCCNc1nc(-c2nccn2C)nc2sc(-c3ccccc3)c(-c3ccccc3)c12 [drawing 1295]
The inhibition at 10 µM of the first is lower: 0% for the first, 76 to 100% for the second.

First: OCC1(c2ccc(-c3nc(-c4ccccn4)nc(-c4ccc(C5(CO)CC5)cc4)c3Oc3ccccc3)cc2)CC1 [drawing 1292]
Second: OCC1(c2ccc(-c3nc(-c4ccccn4)nc(O)c3Oc3ccccc3)cc2)CC1 [drawing 1294]
The inhibition at 10 µM of the first is higher: 51 to 75% for the first, 1 to 25% for the second.

`Cn1ccnc1-c1nc(O)c2c(-c3ccccc3)c(-c3ccccc3)sc2n1` [drawing 1296] and `Cn1cnc(-c2nc(O)c3sc(-c4ccncc4)c(-c4ccccc4)c3n2)c1` [drawing 1309] are the same in inhibition at 10 µM: 0% for the first, 0% for the second.

`Cn1cnc(-c2nc(O)c3c(-c4ccccc4)c(-c4ccc(CNC(=O)OC(C)(C)C)cc4)sc3n2)c1` [drawing 1297] and `COCC(C)Nc1nc(-c2ccccn2)nc2sc(-c3ccncc3)c(-c3ccccc3)c12` (stereo not drawn) [drawing 1301] are the same in inhibition at 10 µM: 0% for the first, 0% for the second.

First: Oc1nc(-c2ccccn2)nc2c1c(-c1ccccc1)nn2-c1ccccn1 [drawing 1299]
Second: COc1nc(-c2ccccn2)nc2c1c(-c1ccccc1)nn2-c1ccccn1 [drawing 1300]
The inhibition at 10 µM of the first is lower: 0% for the first, 25 to 50% for the second.

`Nc1nc(O)c2sc(-c3cccc(C(=O)NC4CCNC4=O)c3)cc2n1` (stereo not drawn) [drawing 1302] and `Nc1nc(O)c2sc(-c3cccc(C(=O)NCc4ncc[nH]4)c3)cc2n1` [drawing 1305] are the same in inhibition at 10 µM: 0% for the first, 0% for the second.

First: Nc1nc(O)c2sc(-c3cccc(C(=O)N4CCC(O)C4)c3)cc2n1 (stereo not drawn) [drawing 1303]
Second: NC(=O)C1CCCN1C(=O)c1cccc(-c2cc3nc(N)nc(O)c3s2)c1 (stereo not drawn) [drawing 1304]
The inhibition at 10 µM of the first is lower: 0% for the first, 1 to 25% for the second.

First: Nc1nc(O)c2sc(-c3cccc(C(=O)NCc4cccc(O)n4)c3)cc2n1 [drawing 1306]
Second: Cc1ccc(-c2cc3nc(-c4ccccn4)nc(O)c3s2)cc1 [drawing 1315]
The inhibition at 10 µM of the first is lower: 0% for the first, 76 to 100% for the second.

`COCC(C)Nc1nc(-c2ccccn2)nc(C(=O)NCCCc2c[nH]cn2)c1Oc1ccccc1` (stereo not drawn) [drawing 1310] and `Nc1nc(-c2ccccn2)nc(C(=O)NCCc2ccncc2)c1Oc1ccccc1` [drawing 1311] fall in the same range of inhibition at 10 µM: 1 to 25% for the first, 1 to 25% for the second.

Compared with `COc1nc(-c2ccccn2)nc(Oc2cccc(C(F)(F)F)c2)c1OC` [drawing 1312], `COc1c(O)nc(-c2ccccn2)nc1Oc1cccc(C(F)(F)F)c1` [drawing 1317] is higher in inhibition at 10 µM: 0% for the first, 1 to 25% for the second.

`Oc1nc(-c2ccccn2)nc2cc(-c3ccccc3Cl)sc12` [drawing 1316] and `Oc1nc(-c2ccccn2)nc(Oc2cccc(C(F)(F)F)c2)c1O` [drawing 1318] fall in the same range of inhibition at 10 µM: 1 to 25% for the first, 1 to 25% for the second.
